Columns and labels:
Format in all cases: cell-based
C18-1/EREBP1 = test: Northern analysis of mRNA accumulation in cultured tobacco cells; details: SA time course, full length cDNA probe
[1] = tested on: class IV genes (G3-2 and C14-1b); test: Northern analysis of poly(A) mRNA from treated tobacco cells; details: SA at 2, 4, 8 h; 71 μM CHX 5 hrs
Description: (§1) FIG. 1. Four classes of SA-induced early genes. Northern analysis of genes identified by differential display. Gel-purified DNA fragments produced by ddPCR were either used directly for random-primed labeling and probing of Northern filters (e.g. C7-1, C6-1, and G9-2) or first subcloned and released by restriction digest. Each lane contains 1 μg of poly(A) mRNA from cultured tobacco cells treated with (1) H2O, 4 hr; (2) 200 μM SA, 4 hr; (3) 71 μM CHX, 5 hr; (4) 71 μM CHX, 5 hr plus 200 μM SA after 1 hr (4 hr total); (5) 20 μM SA, 2 hr; (7) 200 μM SA, 8 hr. One blot was sequentially hybridized with the G1-1 fragment and the β-ATPase gene as a loading control probe. response classes (I-IV) are indicated on the left of the autoradiograms.
(§2) Differential display technology (Liang, P. and Pardee, A. B., Science 257: 967-971, 1992) was used to identify genes activated in the presence of SA, CHX and both. Therefore the absence or presence of SA, induction at 3 timepoints of SA-treatment, 2 different concentrations of SA and the effect of addition of CHX were measured. Seven treatments in total were performed. Treatment of tobacco BY-2 suspension cells and leaves and differential display PCR reactions were performed as described (Horvath and Chua (1996), Plant Mol. Biol. 31, 1061-1072).
(§3) Fiftytwo were recovered for testing on poly(A)+Northern blots loaded with mRNA derived from cells from each of the treatments.

Class I genes = test: as above; details: SA at 2, 4 or 8 h; 71 μM CHX 5 hrs; CHX + 200 μM SA
Description: as §1, §2, §3

class II genes = test: as above; details: SA at 2, 4, 8 h; 71 μM CHX 5 hrs; CHX + 200 μM SA
Description: as §1, §2, §3

G3-2 = test: Northern analysis of mRNA accumulation in cultured tobacco cells
Description: as §1
FIG. 2. Time course of SA-induced gene expression. Northern analysis of representative differential display genes following treatment of cultured tobacco cells with SA for the indicated time (in hours, except lanes 2-4, which refer to 10, 20, and 30 min.). Twenty micrograms of total RNA was loaded per lane. Blots were hybridized with ddPCR fragments indicated at right or with the β-ATPase gene as a loading control probe. Autoradiogram exposure times were optimized for each gene. The signal for C18-1 was enhanced by using the full length cDNA as probe. Labels on left indicate response class.
FIG. 4. Specificity of induction among SA analogs and other signalling compounds. Northern analysis of representative differential display genes following treatment of tobacco cells with 100 μM or 1 mM (left and right side of triangles, respectively) of the following chemicals for 2-2.5 hr: salicylic acid (SA, lanes 4 and 5), acetylSA (ASA, lanes 6 and 7), benzoic acid (BA, lanes 8 and 9), 4-hydroxybenzoic (4HBA, lanes 10 and 11), thiamine (thia, lanes 12 and 13), methyljasmonate (MJ, lanes 14 and 15), abscisic acid (ABA, lanes 16 and 17), or 2,4-dichlorophenoxyacetic acid (2,4-D, lanes 18 and 19). Control treatments are H2O (H, lane 1), 1% ethanol (E, solvent concentration in MJ treatments, lane 2), or 1% DMSO (D, solvent concentration in 2,4D treatments, lane 3). Blots were hybridized with ddPCR fragments indicated at right or with the β-ATPase geneas a loading control probe. Autoradiogram exposure times were optimized for each gene. The signal for C18-1 was enhanced by using the full length cDNA as probe. Labels on left indicate response class.
as §2
The specificity for induction by SA was tested by treating tobacco cells with a range of SA analogs and plant signalling compounds at 0.1 and 1 mM for approximately 2.5 h. […] Among the SA-analogs, acetyl-SA (ASA, aspirin), benzoic acid (BA) and 4-hydroxybenzoic acid (4HBA), responses generally reflected the ability of the analog to substitute for SA in other cellular responses (Yalpani, N. et al., Plant Cell 3: 809-818, 1991, Yang, Y. and Klessig, D. F., Proc. Natl. Acad. Sci. 93, 14972-14977, 1996). […] Several genes, including those for proteinase inhibitors and lipoxygenase (Hildmann, T. et al., Plant Cell 4: 1157-1170, 1992; Melan, M. A. et al., Plant Physiol. 101: 441-450, 1993; Xu, D. et al., Plant Mol. Biol. 22: 573-588, 1993) are known to be under dual regulation by MJ and ABA. A similar mode of regulation may be in effect with C14-1b. the auxin 2,4-D induced several genes including C18-1/EREBP1 and C6-2.

O=C(O)c1ccccc1O [SA, salicylic acid]
time at which increase in C18-1/EREBP1 mRNA is first apparent (C18-1/EREBP1): 10 min
mRNA induction of class IV genes [1]: rapid and sustained induction
mRNA induction of Class I genes (Class I genes): little if any detectable mRNA accumulation
mRNA induction of class II genes (class II genes): rapid and transient
G3-2 mRNA levels at 20 μM SA (G3-2; 20 μM SA): comparable to those at 200 μM
G3-2 induction at 0.1 mM versus 1 mM (G3-2; 0.1 and 1 mM, approximately 2.5 h): equal or greater induction at 0.1 mM versus 1 mM
G3-2 mRNA levels between 2 and 12 h (G3-2; SA time course): increased steadily
time before which G3-2 is not detectably activated (G3-2; SA time course): ≥ 2 h
sensitivity of G3-2 to SA (G3-2; data not shown): similarly sensitive as G8-1

— patent US20020039780A1, “Salicyclic acid inducible genes and promoters” (priority 1998, published 2002)
